Patent US20160157477A1, “USE OF VISUAL CUES TO ENHANCE BIRD REPELLENT COMPOSITIONS” (ARKION LIFE SCIENCES, LLC, priority 2014, published 2016)

Tests used:
red-winged blackbirds [1] = test: Threshold AQ concentration previously established for red-winged blackbirds (Werner et al. 2009); type: in vivo, red-winged blackbirds (Agelaius phoeniceus); conditions: 80% repellency, anthraquinone only, interpolated between the 70% and 100% values
Protocol: The concentration response of AQ plus TiO2 feeding cue was tested. This experiment was designed to establish a concentration response relationship of AQ plus 0.2% TiO2 treated sunflower seeds for blackbirds in captivity. The experiment was also designed to establish a threshold concentration of AQ necessary for blackbird feeding repellency when reduced by varying the concentration of AQ based repellent combined with a TiO2 feeding cue. This optimized AQ concentration was expected to be less than the threshold AQ concentration previously established for red-winged blackbirds done by Werner et al. (2009) and shown in column 2 of Table 1. Daily sunflower consumption was measured throughout the pretreatment and test phases of the experiment as previously described. Greater than 80% repellency during a captive feeding trial is the operational level for an effective repellent as has been documented in the field using AQ repellents, see Werner et al. (2009) and (2011).

red-winged blackbirds [2] = conditions: anthraquinone only, cited from earlier work
birds = conditions: '678 patent; cited from earlier work

With `O=C1c2ccccc2C(=O)c2ccccc21` [Anthraquinone Only, 9,10-anthraquinone] the “[AQ] ppm by weight for RWBL Repellency 80% (expected AQ concentration)” value (red-winged blackbirds [1]) was 1737 ((1846 − ppm by weight, the “[AQ] ppm by weight for RWBL Repellency 80% (expected AQ concentration)” value (red-winged blackbirds [1]; listed as AQ) was 1737 ppm by weight and the “[AQ] ppm by weight for RWBL Repellency 80% (expected AQ concentration)” value (red-winged blackbirds [1]; listed as straight AQ) was 1737 ppm by weight. The “[AQ] ppm by weight for RWBL Repellency 20%” value (red-winged blackbirds [2]; 20% repellency) was 193 (222*20/23) ppm by weight, the “[AQ] ppm by weight for RWBL Repellency 35%” value (red-winged blackbirds [2]; 35% repellency) was 572 (556*34/35) ppm by weight and the “[AQ] ppm by weight for RWBL Repellency 50%” value (red-winged blackbirds [2]; 50% repellency) was 538 (560*50/52) ppm by weight. The “[AQ] ppm by weight for RWBL Repellency 70%” value (red-winged blackbirds [2]; 70% repellency) was 1682 (1778*74/70) ppm by weight, the “[AQ] ppm by weight for RWBL Repellency 100%” value (red-winged blackbirds [2]; 100% repellency) was 1846 (1994*100/108) ppm by weight and the “AQ concentration to achieve 74% repellency” value (birds) was 1778 ppm.
